Experimental data published in patent US20180296531A1, “STIMULATION OF 11B-HSD2 EXPRESSION TO IMPROVE HORMONAL THERAPY OF STEROID-DEPENDENT DISEASE” (THE CLEVELAND CLINIC FOUNDATION, priority 2015, published 2018).

What was measured:
[1] = tested on: LAPC4 xenografts grown in orchiectomized mice; test: Xenograft cortisol metabolism: [3H]-cortisol inactivation in freshly harvested tumors; assay type: in vivo, mouse; details: CRPC xenograft tumors from enzalutamide-treated mice vs orchiectomy alone
Protocol: Xenograft metabolism. LAPC4 cells (˜10^7) were injected subcutaneously with Matrigel (Corning) into surgically orchiectomized NSG mice that were implanted with DHEA pellets (5 mg/pellet, 90-day sustained-release, Innovative Research of America). Fresh xenografts were harvested and ˜40 mg xenograft tissues were minced, and cultured in IMEM with 10% FBS at 37° C. with a mixture of [^3H]-cortisol and non-radiolabeled cortisol. Aliquots of media were collected at the indicated time points, steroids were extracted and concentrated as described above.

11β-HSD1 protein = test: Immunoblot of 11β-HSD1 protein in prostate cancer cell lines; assay type: cell-based, human; details: AR-expressing prostate cancer cell lines
Protocol: For protein analysis, immunoblots were performed as described previously. Li et al., J Clin Endocrinol Metab 98, E1189-1197 (2013). Briefly, total cellular protein was extracted with ice cold RIPA lysis buffer (Sigma-Aldrich) containing protease inhibitors (Roche). 30-50 μg protein was separated by 8% SDS-PAGE gel and then transferred to a nitrocellulose membrane (Millipore). After incubating with the anti-11β-HSD2 antibody (Santa Cruz; 1:3000), anti-11β-HSD1 antibody (Santa Cruz; 1:1000), GR antibody (BD Biosciences; 1:1000), anti-Erlin-2 antibody (Cell Signaling Technology: 1:1000) or anti-AMFR antibody (Proteintech; 1:1000) overnight at 4° C., the appropriate secondary antibody was incubated for 1 hour at room temperature. The chemiluminescent detection system (Thermo Scientific) was used to detect the bands with peroxidase activity. An anti-β-actin antibody (Sigma-Aldrich; 1:5000) was used as a control for sample loading.

11β-HSD2 = biological target: T1, 11β-HSD2 (Homo sapiens, UniProt P80365); test: Direct 11β-HSD2 antagonism: cortisol to cortisone conversion in LAPC4 cells transfected with 11β-HSD2 vector; assay type: cell-based; details: LAPC4 transfected with 11β-HSD2 vector, [3H]-cortisol 100 nM
T1 construct: FLAG; expressed in transfected cells; host or cells: LAPC4
T1 sequence (P80365 1-405): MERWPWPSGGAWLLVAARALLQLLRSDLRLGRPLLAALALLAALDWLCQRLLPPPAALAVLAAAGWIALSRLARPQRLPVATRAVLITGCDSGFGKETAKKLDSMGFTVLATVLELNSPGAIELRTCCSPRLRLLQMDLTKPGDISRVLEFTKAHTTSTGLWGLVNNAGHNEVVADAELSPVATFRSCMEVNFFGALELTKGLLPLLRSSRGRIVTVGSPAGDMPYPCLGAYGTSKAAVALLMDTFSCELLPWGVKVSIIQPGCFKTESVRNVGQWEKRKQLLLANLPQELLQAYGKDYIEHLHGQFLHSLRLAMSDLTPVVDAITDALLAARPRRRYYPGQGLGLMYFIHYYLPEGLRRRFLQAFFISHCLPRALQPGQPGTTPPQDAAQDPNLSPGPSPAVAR
Protocol: Gene expression. The day before transfection, LAPC4 cells were plated into 12 well plates coated with poly-DL-ornithine (˜7×10^5 cells/well). On the day of transfections, an Erlin-2 expressing plasmid, Erlin-2-Myc-DDK-tagged (OriGene) or 11β-HSD2-expressing plasmid FCIV1-11β-HSD2-FLAG was introduced into the cells with Lipofectamine® 3000 Reagent (Life Technology). After 48 hours, the cells were collected and used for the detection of 11β-HSD2 and Erlin-2 by immunoblot, or treated with Enz for 24 hours to determine the effects on cortisol metabolism by HPLC as described herein.

11β-HSD2 protein = test: Human prostate cancer tissue studies, 11β-HSD2 protein; details: tissues from patients with prostate cancer treated with enzalutamide (in patients or ex vivo 10 μM, 7-8 days)
Protocol: All deidentified human tissues were obtained using institutional review board (IRB)-approved protocols. Pre- and post-Enz lymph node tissues were obtained from CT-guided biopsy of metastatic CRPC from Cleveland Clinic (Patient #3) and Dana-Farber Cancer Institute (Patient #4). Pathologic identification of tumor was done by an expert prostate cancer pathologist. Staining of tissues from Patient #4 was done with frozen section slides that were air dried at room temperature for 5 minutes, followed by rehydration with PBS. Immunofluorescence staining was performed as described above. H&E staining was completed by the imagine core of Biomedical Engineering Department in Lerner Research Institute of Cleveland Clinic.
Paired pre-Enz treatment and post-Enz treatment tissues from Patient #1 and Patient #2 were obtained from patients with localized prostate cancer treated with Enz plus ADT for 2 months prior to the second biopsy in a clinical trial (NCT02064582) at the University of Texas Southwestern Medical Center. Biopsies were obtained using image-guidance with a Koelis Urostation. The biopsy cores were minced into pieces and then added into Soft tissue homogenizing CK14 tubes (Betin Technologies) with 100 μl 6M Urea buffer containing protease inhibitors (Sigma Aldrich). Tissue homogenization and immunoblot analysis were performed as described previously. […]

tumor corticosterone = test: Mass spectrometry of corticosterone in xenograft tumors; assay type: in vivo, mouse
Protocol: Xenograft analysis. At least 24 mg tumor tissue (n=18) was homogenized with 1 ml LC-MS grade water (Fisher) by using homogenizer. The mixture was then centrifuged. 800 μl of the supernatant was transferred to a glass tube, followed by the addition of 80 μl of 10 ng/ml internal standard (corticosterone-d8) (Steraloids). The steroids and the internal standard were extracted with methyl tert butyl ether (Across) evaporated to dryness under N2 then reconstituted with 500 μl of 50% methanol.
The LC-MS/MS system contains an ultra-pressure liquid chromatography system (Shimadzu Corporation, Japan) which is consisted of two LC-30AD pumps, a DGU-20A5R degasser, a CTO-30A column oven, SIL-30AC autosampler, and a system controller CBM-20A and coupled with a Qtrap 5500 mass spectrometer (AB Sciex). Data acquisition and processing were performed using Analyst® software (version 1.6.2) from ABSciex.
Steroids were ionized using electrospray ionization in positive mode. Quantification of analytes was performed using multiple reaction monitoring. The mass transitions for corticosterone, 11-dehydrocorticosterone, and internal standard are 347.3/121.0, 345.3/121.0, and 355.3/125.0, respectively. Separation of steroids was achieved using a Zorbax Eclipse plus C18 column (Agilent) using mobile phase consisting of (A) 0.2% formic acid in water and (B) 0.2% formic acid in (methanol:acetonitrile, 60:40) with a gradient program at a flow rate of 0.2 ml/min. Sample injection volume was 10 μl.

[2] = enzalutamide-treated 11β-HSD2 tumors
[3] = enzalutamide-treated vector tumors

Structure (SMILES): CNC(=O)c1ccc(N2C(=S)N(c3ccc(C#N)c(C(F)(F)F)c3)C(=O)C2(C)C)cc1F [enzalutamide]
- inactivation of [3H]-cortisol by conversion to cortisone [1]: impaired capability of inactivating [^3H]-cortisol
- 11β-HSD1 protein (11β-HSD1 protein): no consistent effect on 11β-HSD1 was detectable
- direct 11β-HSD2 antagonism (11β-HSD2): no direct 11β-HSD2 antagonism
- patient tissues with loss of 11β-HSD2 with treatment (11β-HSD2 protein): Nine of 11
- percentage of tumor corticosterone of corticosterone plus 11-dehydrocorticosterone (tumor corticosterone; [2]): 33%
- tumor corticosterone concentration (tumor corticosterone; [2]): 15.1 pmol/g
- percentage of tumor corticosterone of corticosterone plus 11-dehydrocorticosterone (tumor corticosterone; [3]): 59%
- tumor corticosterone concentration (tumor corticosterone; [3]): 44.5 pmol/g
